Laboratory results from patent US20050209157A1, “Short bioactive peptides and methods for their use” (priority 2001, published 2005).
Converted amounts (≈) assume the structure as drawn. “And” between values parts separate entries of the source, which are not always exact repeats. Equal values may be shown once. Read-outs that look alike come from different tables or passages of the source. No end group written: not given here.

Columns and labels:
[1] = test system: Candida glabrata ATCC15126; assay: Antimicrobial assays II, NCCLS broth microdilution MIC; format: cell-based; conditions: in µg/mL
[2] = test system: Pseudomonas aeruginosa H187; format: cell-based; conditions: in µg/mL
P. aeruginosa H374 = format: cell-based, Pseudomonas aeruginosa; conditions: in µg/mL
[3] = test system: Pseudomonas aeruginosa 100609; format: cell-based; conditions: Table 9; in µg/mL
[4] = test system: Pseudomonas aeruginosa 105663; format: cell-based; conditions: Table 9; in µg/mL
E. coli UB1005 = format: cell-based, Escherichia coli; conditions: Table 12
S. aureus (MRSA) = format: cell-based, Staphylococcus aureus; conditions: Table 13, strain SAP0017; in µg/mL
S. epidermidis C621 = format: cell-based, Staphylococcus epidermidis; conditions: Table 13; in µg/mL
Candida albicans 105 = format: cell-based; conditions: Table 13; in µg/mL
S. typhimurium 14028S = format: cell-based, Salmonella typhimurium; conditions: Table 12

Row | Compound | MIC C. glabrata ATCC15126 ([1]; Table 8) | MIC P. aeruginosa H187 ([2]; Table 8) | MIC P. aeruginosa H187 ([2]; Table 9) | MIC P. aeruginosa H374 (P. aeruginosa H374; Table 9) | MIC P. aeruginosa Tb 100609 [3] | MIC P. aeruginosa Tb 105663 [4] | MIC C. glabrata ATCC15126 ([1]; Table 13) | MIC E. coli UB1005 (E. coli UB1005) | MIC P. aeruginosa H187 ([2]; Table 12) | MIC S. aureus SAP0017 (S. aureus (MRSA)) | MIC P. aeruginosa H374 (P. aeruginosa H374; Table 12) | MIC S. epidermis C621 (S. epidermidis C621) | MIC C. albicans 105 (Candida albicans 105) | MIC S. typhimurium 14028S (S. typhimurium 14028S)
1 | FAVGLRAIKRALKKLRRGVRKVAKDL-NH2 [P157 (119)] | 64 | 8 | 8 | 8 | 16 | 16 |  |  |  |  |  |  |  | 
2 | FAKLLALALKKAL-NH2 [P97 (165)] |  |  | 16 | 8 | 16 | 16 | 16 | 8 µg/mL | 16 | 8 | 8 | 4 | 16 | 16 µg/mL
3 | MPKWKVFKKIEKVGRNIRNGIVKAGPAIAVLGEAKALG-NH2 [P12 (5)] | 128 | 16 | 16 | 8 | 8 | 8 |  |  |  |  |  |  |  | 
4 | VALALKALKKLLKKLKKLAKKAL-NH2 [P510 (161)] |  |  | 8 | 8 | 16 | 16 | 64 | 8 µg/mL | 8 | 8 | 8 | 4 | 32 | 16 µg/mL
5 | CC(C)C[C@H](NC(=O)[C@H](C)NC(=O)[C@H](CC(C)C)NC(=O)[C@H](CCCCN)NC(=O)[C@H](C)NC(=O)[C@H](CC(C)C)NC(=O)[C@H](CCCCN)NC(=O)[C@H](CCCCN)NC(=O)[C@H](C)NC(=O)[C@H](CC(C)C)NC(=O)[C@H](CCCCN)NC(=O)[C@H](C)NC(=O)[C@H](CC(C)C)NC(=O)[C@H](CCCCN)NC(=O)[C@H](CCCCN)NC(=O)[C@H](C)NC(=O)[C@@H](N)C(C)C)C(N)=O [P50 (32)] |  |  | 4 | 4 | 4 | 8 | 16 | 2 µg/mL (≈ 1.11 µM) | 4 | 4 | 4 | 4 | 16 | 4 µg/mL (≈ 2.21 µM)
6 | FAKKLAKKLAKLAL-NH2 [P45 (27)] |  |  | 16 | 8 | 32 | 32 | 16 | 4 µg/mL | 16 | 32 | 8 | 16 | 16 | 32 µg/mL
7 | FALALKALKKLKKALKKAL-NH2 [P27 (12)] |  |  | 8 | 8 | 8 and 16 | 8 and 16 | 16 and 32 | 8 µg/mL | 8 | 8 and 16 | 8 | 4 | 16 and 32 | 16 µg/mL
8 | FALKALKKLKKALKKAL-NH2 [P153 (115)] |  |  | 8 | 4 | 8 | 8 | 16 | 8 µg/mL | 8 | 16 | 4 | 4 | 16 | 8 µg/mL
9 | KYKKALKKLAKLL-NH2 [P146 (108)] |  |  | 4 | 2 | 8 | 8 | 16 | 2 µg/mL | 4 | 16 | 2 | 8 | 8 | 4 µg/mL
10 | GIGKFLKKAKKFGKAFVKILKK-NH2 [P42 (24)] |  |  | 8 | 4 | 8 | 8 | 64 | 4 µg/mL | 8 | 16 | 4 | 2 | 32 | 8 µg/mL
11 | CC(C)C[C@H](NC(=O)[C@H](C)NC(=O)[C@H](CC(C)C)NC(=O)[C@H](CCCCN)NC(=O)[C@H](C)NC(=O)[C@H](CC(C)C)NC(=O)[C@H](CCCCN)NC(=O)[C@H](CCCCN)NC(=O)[C@H](C)NC(=O)[C@H](CC(C)C)NC(=O)[C@H](CCCCN)NC(=O)[C@H](C)NC(=O)[C@H](CC(C)C)NC(=O)[C@H](CCCCN)NC(=O)[C@H](CCCCN)NC(=O)[C@H](C)NC(=O)[C@@H](N)Cc1ccccc1)C(=O)O [P61 (41)] | 32 | 8 | 8 | 4 | 16 | 8 |  |  |  |  |  |  |  | 
12 | FAKKLAKKLKKLAKLALAK-NH2 [P41 (23)] | 32 | 8 | 8 | 4 | 8 | 8 |  |  |  |  |  |  |  | 
13 | FAKKLAKKLKKLAKKLAK-OH [P71 (47)] | 32 | 8 | 8 | 4 | 16 | 16 |  |  |  |  |  |  |  | 
14 | LPKWKVFKKIEKVGRNIRNGIVKAGPAIAVLGEAKALG-NH2 [P306 (150)] | >128 | 16 | 16 | 8 | 16 | 32 |  |  |  |  |  |  |  | 
15 | FAKKLKKLAKLAKKL-NH2 [P46 (28)] | 32 | 8 and 16 | 16 | 4 | 16 | 32 |  |  |  |  |  |  |  | 
16 | FAKKLAKLAKKALAL-NH2 [P39 (21)] | 16 | 32 | 32 | 16 | 32 | 32 |  |  |  |  |  |  |  | 
17 | CC(C)C[C@H](NC(=O)[C@H](C)NC(=O)[C@H](CC(C)C)NC(=O)[C@H](C)NC(=O)[C@H](CC(C)C)NC(=O)[C@H](CCCCN)NC(=O)[C@H](C)NC(=O)[C@H](CC(C)C)NC(=O)[C@H](CCCCN)NC(=O)[C@H](CCCCN)NC(=O)[C@H](C)NC(=O)[C@H](CC(C)C)NC(=O)[C@H](CCCCN)NC(=O)[C@H](CCCCN)NC(=O)[C@H](CC(C)C)NC(=O)[C@H](CCCCN)NC(=O)[C@H](CCCCN)NC(=O)[C@H](C)NC(=O)[C@H](CC(C)C)NC(=O)[C@H](CCCCN)NC(=O)[C@H](CCCCN)NC(=O)[C@H](C)NC(=O)[C@@H](N)Cc1ccccc1)C(N)=O [P11 (4)] |  |  | 16 | 16 | 16 | 16 |  |  |  |  |  |  |  | 
